Results on one compound are retold here after publication PMC12263422, “Cryo-EM structure of the human THIK-1 K2P K^+ channel reveals a lower Y gate regulated by lipids and anesthetics” (Nature Structural & Molecular Biology, 2025).

Where “and” joins values, the source holds several entries; their conditions need not be identical. Identical values can stand only once. Like-named read-outs stand apart in the source and are kept apart here.

The test has as its target T1, THIK-1 C135A (Homo sapiens, UniProt Q9HB14, C135A).
T1 construct: expressed in transfected cells; host or cells: Xenopus oocytes (mRNA injection)
T1 sequence (Q9HB14 1-408 C135A): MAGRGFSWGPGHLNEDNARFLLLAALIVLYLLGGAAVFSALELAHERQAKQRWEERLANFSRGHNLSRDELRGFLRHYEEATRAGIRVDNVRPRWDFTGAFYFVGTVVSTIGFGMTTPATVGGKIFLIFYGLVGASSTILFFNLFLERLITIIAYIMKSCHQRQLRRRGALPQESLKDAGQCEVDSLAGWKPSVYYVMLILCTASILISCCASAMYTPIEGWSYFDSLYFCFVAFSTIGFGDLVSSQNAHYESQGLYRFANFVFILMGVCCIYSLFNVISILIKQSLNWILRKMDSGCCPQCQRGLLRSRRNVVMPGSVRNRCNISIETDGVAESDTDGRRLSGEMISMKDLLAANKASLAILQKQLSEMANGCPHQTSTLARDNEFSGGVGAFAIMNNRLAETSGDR
The test is described as follows: Inside-out excised patch recordings, oocytes, THIK-1 C135A mutant. It is filed as cell-based. Conditions: read-out: TPenA IC50. An excerpt: Human K2P13.1 THIK-1 (GenBank accession number: NM_022054) and human K2P12.1 THIK-2 (NM_022055.1) were used in this study. For functional expression studies, the respective K^+ channel subtype coding sequences were subcloned into the oocyte expression vector pSGEM or the dual-purpose expression vector pFAW[41] and verified by sequencing. All mutant channels were obtained by site-directed mutagenesis and verified by sequencing. To increase surface expression and macroscopic currents, measurements of THIK-2 channels used a mutated ER retention motif, (R11A R12A R14A R15A R16A; THIK-2*)[20]. Vector DNA was linearized with NheI or MluI, and mRNA was synthesized in vitro using the SP6 or T7 AmpliCap Max High Yield Message Maker Kit (Cellscript, USA) or HiScribe T7 ARCA mRNA Kit (New England Biolabs).
Two-electrode voltage–clamp (TEVC) studies were performed in Xenopus oocytes. All animal use conformed to the Guide for the Care and Use of Laboratory Animals (NIH Publication 85–23), and all experiments using Xenopus toads were approved by the local ethics panels. Oocytes were stored at 17 °C in ND96 recording solution composed of (in mM): 96 NaCl, 2 KCl, 1.8 CaCl2, 1 MgCl2, 5 HEPES (pH 7.5 adjusted with NaOH and HCl), supplemented with Na-pyruvate (275 mg L^–1), theophylline (90 mg L^–1) and gentamicin (50 mg L^–1). Oocytes were injected with 1 ng mRNA for WT or mutant channels, and were incubated for 24–48 h at 17 °C. Two-electrode voltage clamp recordings were then performed as previously described[42],[43]. […] Currents were recorded with an EPC10 amplifier (HEKA Electronics) and sampled at 10 kHz or higher, with filtering set to 3 kHz (–3 dB) or higher, as appropriate for sampling rate. For measurements of GPCR activation, whole-cell currents were recorded for THIK-1 in transiently transfected HEK-293 cells. […] Single-channel currents were recorded with an Axopatch 200B amplifier through a Digidata 1440A digitizer (Molecular Devices). Data were filtered at 2 kHz and recorded at a 200-kHz sampling rate with the program Clampex (Molecular Devices). […]

One may read the IC50 as the concentration that inhibits the measured activity by half. Regarding `CCCCC[N+](CCCCC)(CCCCC)CCCCC` [TPenA, tetrapentylammonium], the IC50 runs as follows: (C135A mutant) 1.06 mM; (THIK-1 C135A, individual recordings) 1.25 mM and 1.27 mM and 1.53 mM and 1.18 mM and 0.748 mM and 1.44 mM and 0.621 mM and 0.466 mM; (THIK-1 C135A, mean) 1.06 mM.
